Legend:
[1] = test system: Heliothis virescens (Tobacco Budworm); assay: Example B2: activity against Heliothis virescens, ovo-larvicide, feeding/contact, curative; format: in vivo; settings: 96 h, 4 days incubation, eggs 0-24 h old
Method: Activity Against Heliothis virescens (Tobacco Budworm)
(Ovo-Larvicide, Feeding/Contact Activity, Curative)
Eggs (0-24 h old) are placed in 24-well microtiter plate on artificial diet and treated with test solutions by pipetting. After an incubation period of 4 days, samples are checked for egg mortality, larval mortality, and growth regulation.

[2] = test system: Plutella xylostella (Diamond Back Moth); assay: Example B3: Plutella xylostella, larvicide, feeding/residual contact, preventive (artificial diet MTP); format: in vivo; settings: 120 h, 5 days incubation, L2 larvae
How it was run: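 Artificial diet in multiwell plates treated with test solution, dried, then infested with 10–15 L2 larvae per well. After 5 days, larval mortality, antifeedant effect and growth regulation were scored.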

[3] = test system: Thrips tabaci (Onion Thrips); assay: Example B7: activity against Thrips tabaci, mixed population, feeding/residual contact, preventive; settings: 144 h, read-out: activity
[4] = test system: Frankliniella occidentalis (Western Flower Thrips); assay: Example B9: activity against Frankliniella occidentalis (bean leaf discs or bean plants); format: in vivo; settings: foliar, 6 days (leaf discs) or 14 days (plants) after infestation
How it was run: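 Bean leaf discs on agar or whole bean plants sprayed with diluted test solutions, then infested with a mixed thrips population after drying. Population reduction versus untreated assessed 6 days (discs) or 14 days (plants) after infestation.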

[5] = test system: Aphis craccivora (Pea Aphid); assay: Example B10: activity against Aphis craccivora, mixed population, contact/feeding; format: in vivo; settings: 144 h, 6 days after treatment, spray (contact/feeding)
Description: (§1) Activity Against Aphis craccivora (Pea Aphid)
(Mixed Population, Contact/Feeding)
6 days after treatment, samples are checked for mortality.

[6] = test system: Myzus persicae (Green Peach Aphid); assay: Example B6: activity against Myzus persicae, mixed population, systemic/feeding, curative (pea seedling roots); settings: 144 h, read-out: activity
[7] = test system: Myzus persicae (Green Peach Aphid); assay: Example B5: activity against Myzus persicae, mixed population, feeding/residual contact, preventive (sunflower leaf discs); settings: foliar, 144 h, read-out: activity
[8] = test system: Spodoptera littoralis (Egyptian Cotton Leafworm); assay: Example B1: activity against Spodoptera littoralis, larvicide, feeding/residual contact, preventive (cotton leaf discs); format: in vivo; settings: foliar, 72 h, 3 days after treatment, L1 larvae
[9] = test system: Diabrotica balteata (Corn Root Worm); assay: Example B4: Diabrotica balteata, larvicide, feeding/residual contact, preventive; format: in vivo; settings: 120 h, 5 days incubation, L2 larvae
How it was run: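 Artificial diet treated with test solution, dried, then infested with 6-10 L2 larvae per well. Larval mortality, antifeedant effect and growth regulation checked after 5 days of incubation.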

[10] = test system: Cydia pomonella (Codling Moth); assay: Example B8: activity against Cydia pomonella (paraffin-coated diet cubes); format: in vivo; settings: 336 h, 14 days incubation at 26° C.
Method: Activity Against Cydia pomonella (Codling Moth)
Standard Cydia diet cubes (1.5 cm width) are pierced with a tooth-pick and are immersed in liquid paraffin (ca. 80° C.). After the paraffin coat has hardened, an aqueous emulsion containing 400 ppm of active ingredient is applied using a De Vilbis sprayer (25 ml, 1 bar). After the spray coating has dried, the cubes are put into plastic containers which are then populated with two freshly hatched Cydia pomonella (1st instar). The containers are then closed with a plastic cap. After 14 days incubation at 26° C. and 40-60% relative humidity, the survival rate of the caterpillars as well as their growth regulation is determined. In this test, compounds listed in Table P above show good activity. In particular compounds P.10, P.11, P.12, P.18, P.19, P.20, P.29, P.30, P.31, P.32, P.33, P.34, P.35, P.37, P.38, P.39, P.42, and P.43 show an activity of over 80% at a concentration of 400 ppm.

[11] = test system: Aphis craccivora (Pea Aphid); assay: Example B11: activity against Aphis craccivora, mixed population, systemic/feeding; format: in vivo; settings: 144 h, 6 days, roots in test solution (systemic)
Description: as §1
(§2) (Mixed Population, Systemic/Feeding)
(§3) 6 days later, samples are checked for mortality.

[12] = test system: Aphis aossypii (Cotton Aphid); assay: Example B13: activity against cotton aphid, mixed population, systemic/feeding; format: in vivo; settings: 144 h, 6 days, roots in test solution (systemic)
Description: Activity Against Aphis aossypii (Cotton Aphid)
as §2, §3

Measured: pest or weed control at 400 ppm

CC(C)NC(=O)c1c(NC(=O)c2cc(C(F)(F)F)nn2-c2ncccc2Cl)c(Cl)cc2cn[nH]c12 [P.10]
not listed: [12]
> 80%: all other assays above

COc1cc(C(=O)Nc2c(C)cc3cn[nH]c3c2C(=O)NC(C)C)n(-c2ncccc2Cl)n1 [P.27, 6-{[2-(3-chloro-pyridin-2-yl)-5-methoxy-2H-pyrazole-3-carbonyl]-amino}-5-methyl-1H-indazole-7-carboxylic acid isopropylamide]
not listed: [10]
> 80%: all other assays above

COc1cc(C(=O)Nc2c(C)cc3cn[nH]c3c2C(=O)NC2(C3CC3)CC2)n(-c2ncccc2Cl)n1 [P.28, 6-{[2-(3-chloro-pyridin-2-yl)-5-methoxy-2H-pyrazole-3-carbonyl]-amino}-5-methyl-1H-indazole-7-carboxylic acid bicyclopropyl-1-ylamide]
not listed: [10]
> 80%: all other assays above

CCNC(=O)c1c(NC(=O)c2cc(C(F)(F)F)nn2-c2ncccc2Cl)c(Cl)cc2cn[nH]c12 [P.30]
not listed: [3]
> 80%: all other assays above

CC(C)NC(=O)c1c(NC(=O)c2cc(C(F)F)nn2-c2ncccc2Cl)c(Cl)cc2cn[nH]c12 [P.39]
not listed: [5]
> 80%: all other assays above

COc1cc(C(=O)Nc2c(Cl)cc3cn[nH]c3c2C(=O)NC(C)C)n(-c2ncccc2Cl)n1 [P.40]
not listed: [9] | [10]
> 80%: all other assays above

CC(C)NC(=O)c1c(NC(=O)c2cc(Br)nn2-c2ncccc2Cl)c(Cl)cc2cn[nH]c12 [P.42]
> 80%: all assays above

Cc1cc2cn[nH]c2c(C(=O)NC(C)C)c1NC(=O)c1cc(C(F)(F)F)nn1-c1ncccc1Cl [P.44]
not listed: [10]
> 80%: all other assays above

O=C(NC1(C2CC2)CC1)c1c(NC(=O)c2cc(Br)nn2-c2ncccc2Cl)c(Cl)cc2cn[nH]c12 [P.46]
not listed: [10] | [12]
> 80%: all other assays above

COc1cc(C(=O)Nc2c(Cl)cc3cn[nH]c3c2C(=O)NC2(C3CC3)CC2)n(-c2ncccc2Cl)n1 [P.47]
not listed: [10]
> 80%: all other assays above

Cc1cc2cn[nH]c2c(C(=O)NC2(C3CC3)CC2)c1NC(=O)c1cc(C(F)(F)F)nn1-c1ncccc1Cl [P.49]
not listed: [10] | [12]
> 80%: all other assays above

Source: patent US8658801B2, “Pesticides containing a bicyclic bisamide structure” (Syngenta Crop Protection, LLC, priority 2006, dated 2014)
